Measurements from patent US12582688B2, “Compositions for the treatment of hypopigmentation” (University of Pretoria, priority 2021, dated 2026).
Where no end group is shown, it is not given here.

Assays:
[1] = system: Primary human melanocytes and primary human keratinocytes; experiment: Melanin transfer in melanocyte/keratinocyte co-culture, immunofluorescence; type: cell-based; conditions: NHM/NHK co-culture, 24 hours
Description: Primary human melanocytes and primary human keratinocytes were cultured in normal Dulbecco's Modified Eagle's Medium (DMEM) containing melanocyte and keratinocyte growth factors respectively. Melanocytes (2.5×10^3 cells/well) were seeded on gelatine treated round coverslips in 24 well plates and were incubated at 37° C. for 72 hours. After the 72 hours the melanocyte medium was removed and medium (with a higher Ca concentration and keratinocyte growth factors) containing the keratinocytes (25×10^3 cells/well) was added to each well. The co-culture was incubated overnight to ensure that the keratinocytes attached. […] After 24 hours the treated cells and untreated cells were analysed with immunofluorescence ([…], et al., 2008). The 24-hour co-cultured cells were washed with PBS and fixed with MeOH (added at a temperature of -20° C.) and incubated for 4 minutes at -20° C. The fixed cells were washed with PBS to remove all the MeOH and incubated for 1 hour at room temperature with goat serum (0.5% in PBS) to remove effects of background noise. […] The washed coverslips were transferred to microscope slides containing mounting media and stored covered at 4° C., until analysed using the fluorescent microscope. The statistical significance in the melanin transfer results obtained for the different treatments, was determined with a student's T-test. […]

[2] = system: B16-F10 mouse melanocytes; experiment: Melanin production (intracellular and extracellular) in B16-F10 mouse melanocytes; type: cell-based; conditions: B16F10 cells, 72 hours; A. linearis at 500 μg/ml (highest concentration tested)
Description: Cultured B16F10 mouse melanocytes (passage number 6) were trypsinized (0.25% trypsin and 0.1% EDTA at 37° C. for 5-10 min). Cells (2×10^4 cells/well in 1.9 ml of MEM) were inoculated into 24-well plates using a pipette (FALCON 353046, Becton Dickinson Labware, NJ, U.S.A.), and incubated for 24 hours at 37° C. in the CO2 incubator. After 24-hour incubation, 100 μl of each sample solution was added to each well in duplicate, and the 24-well plate was incubated for 72 hours at 37° C. in the CO2 incubator. […] A 0.5% DMSO concentration was used as a negative control. After incubation, the cultured medium was removed, and assayed for extracellular melanin. The cultured medium was centrifuged (900 g, 20 min at 4° C.) to give a supernatant. One millilitre of a mixture of 0.4 M HEPES buffer (pH 6.8) and EtOH (9:1, v/v) was added to 1 ml of the supernatant was separated. The OD at 475 nm of the resulting solution was measured, and the amount of extracellular melanin was determined. The remaining melanocytes were digested by the addition of […] of CMF-D-PBS and trypsinized (0.25% trypsin and 0.1% EDTA at 37° C. for 5 to 10 min), and then incubated for 16 hours at room temperature. Spectrophotometric analysis of the amount of intracellular melanin was then performed at 475 nm.

Molecule	melanocyte dendricity and melanosomes in the dendrite tips [1]	melanosomes around the keratinocyte nuclei (positive keratinocytes) ([1]; versus untreated cells)	additional melanin extracellularly [2] [µg/mL]	additional melanin intracellularly [2] [µg/mL]	additional melanin produced than in the untreated cells (total) [2] [µg/mL]
alpha melanocyte stimulating hormone (SYSMEHFRWGKPV; ends and bridges not checked; UniProt P01189 138-150, looked up) [α-MSH, positive control for melanin transfer]	increase in the fluorescence in the tip of the dendrites	higher presence of melanosomes around the keratinocyte nuclei			
Cn1c(=O)c2[nH]cnc2n(C)c1=O [theophylline]			19	21	40
